From US12163953B2, “P-phenylene ethynylene compounds as bioactive and detection agents” (STC.UNM, priority 2014, dated 2024)
Counter-ions that a name gives are not always drawn. Like-named read-outs stand apart in the source and are kept apart here.

Experiments:
[1] = molecular target: T1, HEWL fibrils incubated for different lengths of time (Gallus gallus, UniProt P00698); test: Fluorescence enhancement of dyes versus HEWL incubation time; type: binding, hen
T1 construct: Lyophilized HEWL was dissolved at 10 mg/mL in 10 mM pH 3 sodium citrate buffer with 0.1 M NaCl; purchased Sigma-Aldrich; host or cells: hen egg white; fibrillised in house (pH 3, 70 °C, stirred)
Procedure: Hen egg white lysozyme (HEWL) was used to form fibrillary amyloid aggregates for use in this study. […] For these experiments. HEWL (Sigma-Aldrich) was incubated at 70′C and a concentration of 350 μM in pH 3 sodium citrate buffer (10 mM) with 100 mM NaCl.
A plot of normalized fluorescence enhancement for all four PEs and Thioflavin T with HEWL fibrils incubated for different lengths of time is shown in FIG. 15. PE1+ and PE2+ track amyloid formation in roughly the same way as ThT, showing a sigmoidal curve with onset of a logarithmic growth phase occurring at the same time, around 1 hour of incubation. The plateau phase, as monitored by fluorescence of any of those three PEs or ThT, appeared at 2 hours incubation.
(§1) For studies of fluorescence enhancement vs. protein incubation time, dyes were mixed with protein sample in phosphate buffer (10 mM, pH 7.4) at equal monomer concentration of 10 μM in the wells of a standard 96-well plate. Emission spectra were obtained using top read with a SpectraMax M2e plate-reading spectrophotometer (Molecular Devices, Sunnyvale, CA). Experiments were performed in duplicate and errors are reported as standard deviation. For analysis of bound PE excitation and emission spectra and protein-PE energy transfer, PEs (500 nM) were mixed with protein sample (5 μM, monomer basis) in phosphate buffer and the solution transferred to a quartz, fluorometry cuvette. Spectra were obtained on a PTI QuantaMaster 40 steady state spectrofluorometer (HORIBA Scientific, Edison, NJ).

[2] = Absorbance and fluorescence of −1C with AChE inhibitors without LaCh (aggregation control); type: physicochemical; settings: 5 uM −1C with 5 ug/mL inhibitor, no LaCh
Procedure: As shown in FIGS. 12A-C, it is clear that inhibition of AChE by several different inhibitors is apparent in the attenuated loss of fluorescence compared with the reference solution, with no inhibitor. […] FIGS. 13A-B illustrate (A) absorbance and (B) fluorescence (Ex: 370 nm) of 5 uM −1C with 5 ug/mL of either LaCh or one of the three AChE Inhibitors used in this study. […] Further, there is little overlap between the fluorescence of the TAE-1/IPE complex and that of the PE/LaCh complex.

[3] = Absorbance/fluorescence spectroscopy and fluorescence quantum yield (comparative method) of PEs and PE/substrate aggregates; type: physicochemical
[4] = Photophysical properties of PEs alone (excitation/emission spectra, fluorescence yield); type: physicochemical
Procedure: Excitation and emission spectra of PEs in phosphate buffer alone, with monomeric HEWL and with HEWL amyloids (8 h incubated) are shown in FIGS. 18A-H, and relevant photophysical properties are summarized in Table 1. FIGS. 18A-H illustrate excitation (A, B, C, D) and emission (right; E, F, G. H) spectra of PEs (A, E: PE1+; B, F: PE1−; C, G: PE2+; D, H: […]) alone (long dashed line) with HEWL monomers (short dashed line) and with HEWL amyloids (solid line); PE concentration: 500 nM, protein concentration: 5 μM monomer basis/0.25 mg/mL; emission and excitation wavelengths, respectively, were chosen as shown in Table 1 for each sample. A 10:1 molar ratio of protein to PE was used for these experiments. Absorbance spectra were taken, but background light scattering from insoluble amyloid aggregates made them difficult to interpret, so “fluorescence detected absorbance” in the form of excitation spectra was used instead. Normalized excitation and emission spectra, in which peak shifts and lineshape changes of spectra were somewhat easier to visualize, were used. […] PE1+ (FIG. 18E) had no change in wavelength or lineshape of emission spectrum, just a large increase in intensity when mixed with amyloids. The excitation spectra (FIGS. 18A, B, C, D) show a notable bathochromic shift for each PE in solution mixed with amyloid, of 23, 27, 35 and 29 nm for PE1+, PE2+, PE3+ and PE1−, respectively, observing only the low-energy band. The high-energy band, less relevant for imaging purposes, was also bathochromically shifted. […] PE1− had similar excitation spectrum (FIG. 18B) with monomer and amyloid, except for a large intensity difference.
as §1

[5] = molecular target: T2, HEWL amyloids (Gallus gallus, UniProt P00698); test: Excitation and emission spectra of PEs with HEWL amyloids; type: binding, hen; settings: PE 500 nM, HEWL amyloid 5 μM monomer basis
T2 construct: Lyophilized HEWL was dissolved at 10 mg/mL in 10 mM pH 3 sodium citrate buffer with 0.1 M NaCl; purchased Sigma-Aldrich; host or cells: hen egg white; fibrillised in house (pH 3, 70 °C, stirred)
Procedure: Excitation and emission spectra of PEs in phosphate buffer alone, with monomeric HEWL and with HEWL amyloids (8 h incubated) are shown in FIGS. 18A-H, and relevant photophysical properties are summarized in Table 1. FIGS. 18A-H illustrate excitation (A, B, C, D) and emission (right; E, F, G. H) spectra of PEs (A, E: PE1+; B, F: PE1−; C, G: PE2+; D, H: PE3+) in phosphate buffer (PB, pH 7.4, 10 mM) alone (long dashed line) with HEWL monomers (short dashed line) and with HEWL amyloids (solid line); PE concentration: 500 nM, protein concentration: 5 μM monomer basis/0.25 mg/mL; emission and excitation wavelengths, respectively, were chosen as shown in Table 1 for each sample. A 10:1 molar ratio of protein to PE was used for these experiments. Absorbance spectra were taken, but background light scattering from insoluble amyloid aggregates made them difficult to interpret, so “fluorescence detected absorbance” in the form of excitation spectra was used instead. Normalized excitation and emission spectra, in which peak shifts and lineshape changes of spectra were somewhat easier to visualize, were used. […] PE1+ (FIG. 18E) had no change in wavelength or lineshape of emission spectrum, just a large increase in intensity when mixed with amyloids. The excitation spectra (FIGS. 18A, B, C, D) show a notable bathochromic shift for each PE in solution mixed with amyloid, of 23, 27, 35 and 29 nm for PE1+, PE2+, PE3+ and PE1−, respectively, observing only the low-energy band. The high-energy band, less relevant for imaging purposes, was also bathochromically shifted. […] PE1− had similar excitation spectrum (FIG. 18B) with monomer and amyloid, except for a large intensity difference.
Lyophilized HEWL was dissolved at 10 mg/mL in 10 mM pH 3 sodium citrate buffer with 0.1 M NaCl. The solution was incubated in a 70C oil bath and magnetically stirred at 250 rpm for 12 h, and aliquots were withdrawn at half-hour intervals. […] Half of each aliquot was immediately diluted into pH 7.4 phosphate buffer to prevent further influence of acidic conditions and stored at 4C.
as §1

[6] = molecular target: T3, HEWL monomers (Gallus gallus, UniProt P00698); test: Fluorescence interaction of PEs with HEWL monomers; type: binding, hen; settings: HEWL monomers 5 μM/0.25 mg/mL
T3 construct: Hen egg white lysozyme and Thioflavin T were obtained from Sigma-Aldrich Chemical Company; purchased Sigma-Aldrich; host or cells: hen egg white
Procedure: Excitation and emission spectra of PEs in phosphate buffer alone, with monomeric HEWL and with HEWL amyloids (8 h incubated) are shown in FIGS. 18A-H, and relevant photophysical properties are summarized in Table 1. FIGS. 18A-H illustrate excitation (A, B, C, D) and emission (right; E, F, G. H) spectra of PEs (A, E: PE1+; B, F: PE1−; C, G: PE2+; D, H: PE3+) in phosphate buffer (PB, pH 7.4, 10 mM) alone (long dashed line) with HEWL monomers (short dashed line) and with HEWL amyloids (solid line); PE concentration: 500 nM, protein concentration: 5 μM monomer basis/0.25 mg/mL; emission and excitation wavelengths, respectively, were chosen as shown in Table 1 for each sample. […] Absorbance spectra were taken, but background light scattering from insoluble amyloid aggregates made them difficult to interpret, so “fluorescence detected absorbance” in the form of excitation spectra was used instead. […]
[formula] where x is PE concentration (with protein concentration fixed), y is PE fluorescence intensity. […] Fits to the data for the three cationic PEs produced Fmax values close to the observed saturation value, and the other two parameters are reported as calculated. […]
For studies of fluorescence enhancement vs. protein incubation time, dyes were mixed with protein sample in phosphate buffer (10 mM, pH 7.4) at equal monomer concentration of 10 μM in the wells of a standard 96-well plate. […]

[7] = molecular target: T4, HEWL amyloid fibrils (Gallus gallus, UniProt P00698); test: Induced circular dichroism of PE-amyloid complexes; type: binding, hen; settings: PEs 10 μM, HEWL 10 μM monomer basis
T4 construct: Lyophilized HEWL was dissolved at 10 mg/mL in 10 mM pH 3 sodium citrate buffer with 0.1 M NaCl; purchased Sigma-Aldrich; host or cells: hen egg white; fibrillised in house (pH 3, 70 °C, stirred)
Procedure: Circular dichroism measurements were performed to determine if the intrinsic chirality of the HEWL fibrils was transferred to the PE chromophore by a chiral backbone twist or an “excitonic” chiral supramolecular aggregate. CD spectroscopy (CPEs in PB with HEWL monomer and with HEWL amyloid; performed for (a): PE1+; (b): PE1−; (c): PE2+; (d): PE3+; PEs 10 μM, HEWL 10 μM monomer basis/0.5 mg/mL) indicated induced circular dichroism of PEs when bound to HEWL amyloids. As expected, no PE had optical activity by itself in phosphate buffer solution and none of the PEs had any CD with HEWL monomer, including PE1−. […] PE2+ and PE3+ gave rise to similar CD spectra, with more intense bands in the spectrum for PE3+.
PEs and protein samples were diluted in phosphate buffer, gently vortexed, and read in a 1 mm pathlength quartz CD cuvette using an Aviv 410 CD spectrometer (Aviv Biomedical, Lakewood, NJ), 15 s averaging time. A blank spectrum (PB only) was subtracted from each sample to remove background activity. Error bars are standard deviation over multiple reads of a single sample as reported by the instrument.

[8] = system: B. atrophaeus vegetative cells; type: cell-based, Bacillus atrophaeus; settings: 10 μg/mL
[9] = system: B. atrophaeus spores; type: cell-based, Bacillus atrophaeus
[10] = system: B. anthracis Sterne vegetative cells; type: cell-based, Bacillus anthracis Sterne; settings: 10 μg/mL, light-activated PE
[11] = system: B. anthracis Sterne spores; type: cell-based, Bacillus anthracis Sterne; settings: within 90 minutes
[12] = phosphate buffer pH 7.4, 10 mM, PE 500 nM

T2 sequence (P00698 19-147): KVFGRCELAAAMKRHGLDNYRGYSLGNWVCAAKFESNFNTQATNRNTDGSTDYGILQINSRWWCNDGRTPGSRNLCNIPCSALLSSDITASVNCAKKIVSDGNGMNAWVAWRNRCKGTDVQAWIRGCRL
T1 sequence (P00698 19-147): as above
T4 sequence (P00698 19-147): as above
T3 sequence (P00698 19-147): as above

Structure (SMILES): Cc1ccc2c(c1)sc(-c1ccc(N(C)C)cc1)[n+]2C.[Cl-] [ThT, Thioflavin T, reference compound]
- HEWL incubation time at which the plateau phase of fluorescence enhancement appears ([1]; dye 10 μM, HEWL 10 μM monomer basis): 2 h

Structure (SMILES): C[N+](C)(C)CCOC(=O)c1ccc(Oc2nc(Oc3ccc(C(=O)OCC[N+](C)(C)C)cc3)nc(Oc3ccc(C(=O)OCC[N+](C)(C)C)cc3)n2)cc1.[I-].[I-].[I-] [TAE-1]
- aggregation induced with −1C [2]: red-shifted absorbance and a strongly red-shifted and broadened green fluorescence

Structure (SMILES): COc1ccc(C(=O)NCc2ccc(OCCN(C)C)cc2)cc1OC [Itopride, N-[[4-[2-(Dimethylamino)ethoxy]phenyl]methyl]-3,4-dimethoxy benzamidehydrochloride]
- aggregation induced with −1C [2]: no significant aggregation

Structure (SMILES): CCOC(=O)c1ccc(C#Cc2cc(OCCS(=O)(=O)O)c(C#Cc3ccc(C(=O)OCC)cc3)cc2OCCS(=O)(=O)O)cc1 [PE1−]
- enhancement of fluorescence quantum yield, LaCh complex versus PE alone ([3]; 5 uM PE with 32 uM LaCh): 66 times
- fluorescence quantum yield of aggregate with LaCh ([3]; 5 uM PE with 32 uM LaCh): 0.991
- centre of structured emission upon aggregation with substrate ([3]; +2C with DLPG, −1C with LaCh): 442 nm
- fluorescence quantum yield, PE alone ([3]; in water, corrected value of this study): 0.015
- λem (H2O) ([4]; H2O): 454 nm
- λem (PB) ([4]; phosphate buffer): 454 nm
- λex (PB), high-energy band [4, 12]: 314 nm
- λex (PB), low-energy band [4, 12]: 370 nm
- bathochromic shift of excitation spectrum, low-energy band, with amyloid [5]: 29 nm
- λem (PB w/ HEWL) ([5]; PB): 439 nm
- λex (PB w/HEWL), high-energy band ([5]; PB): 327 nm
- λex (PB w/HEWL), low-energy band ([5]; PB): 399 nm
- binding to HEWL monomers [6]: linear and non-saturable
- fluorescence enhancement with monomeric species versus amyloid ([1]; equimolar concentrations, 10 μM): greater fluorescence enhancement when mixed with monomeric species than with amyloid
- induced circular dichroism with HEWL amyloid [7]: strong induced CD with a negative Cotton effect

Structure (SMILES): C[N+](C)(C)CCOc1ccc(C#CC2=CC=C(C#Cc3ccc(OCC[N+](C)(C)C)cc3)C2)cc1.I [EO-PE (Th,C2)]
- cell death ([8]; 1 hour, light-activated (UVA)): 99%
- uptake of PI relative to untreated cells ([8]; 1 hr, dark): increased tenfold
- cells killed ([8]; 1 hr, in the absence of light): 73%
- effect of increasing PE concentration on death or germination of spores [9]: no increased effect
- spores in which the water influx event progressed to stain uptake matching vegetative cells (germination) [9]: 39%
- spores still fluorescing like untreated spores (S gate) [9]: 61%
- spores that successfully germinate [9]: 15%
- log reduction of vegetative cells ([10]; within 30 minutes): ~4 log
- log reduction of vegetative cells ([10]; within 90 minutes): 5 log
- killing of spores ([11]; 20 ng PE/spore, light-activated PE): 99%
- spores induced to germinate ([11]; absence of UVA light): 81%
- spores not killed that germinate into viable colony-forming vegetative cells (of all spores) ([11]; absence of UVA light): 72%

Structure (SMILES): CCC1(c2cccc(O)c2)CCCCN(C)C1.Cl (stereo not shown) [Meptazinol, 3-(3-ethylhexahydro-1-methyl-1H-azepin-3-yl)-phenol hydrochloride]
- aggregation induced with −1C [2]: no significant aggregation
